# Laboratory results from PubChem BioAssay AID1963834 (Molecular Pharmacology Branch, DTP, NCI, 2024).
# Where “and” joins values, the source holds several entries; their conditions need not be identical. Equal values may be shown once.
# Tested on: 873145-292-R-J1-PDC complex spheroid viability
# Test: Anticancer human tumor 873145-292-R-J1-PDC patient-derived renal clear cell carcinoma cell line growth inhibition [POLQ]
# Settings: for viability, T/C: stronger effect = lower value
# Method: Multicellular complex tumor spheroid response to Polymerase (POL) inhibitors (novobiocin, ART-558, RP6685) in combination with a variety of drugs and investigational agents in selected tumor cell lines
# The POL inhibitors (novobiocin, ART-558, and RP6685) were evaluated both individually and in combination with standard of care and investigational anticancer small molecules within a complex spheroid model of solid tumors. . Complex spheroids include a stromal component modeled by human endothelial cells (HUVEC) and fibroblasts modeled by human mesenchymal stem cells (MSCs). The concentration ranges selected for each drug and investigational agent were based upon clinically achievable concentrations if the clinical Cmax of the agent was known.
# Compounds. The drugs and investigational agents: novobiocin (NSC847541), ART-558 (NSC835418), RP-6685 (NSC848927), peposertib (NSC802822), ceralasertib (NSC780249), elimusertib (NSC800525), camonsertib (NSC841442), AZD-1390 (NSC803789), olaparib (NSC753686), talazoparib (NSC767125), rucaparib (NSC756644), sotorasib (NSC818433), MRTX-1133 (NSC836407), SN-38 (NSC673596), topotecan (NSC609699), epotoside (NSC141540), doxorubicin (NSC123127), gemcitabine (NSC613327), 5-fluorouracil (NSC19893), paclitaxel (NSC125973), vemurafenib (NSC761431), MSA-2 (NSC828583), SN-011 (NSC837082), adavosertib (NSC754352), prexasertib (NSC758257), carboplatin (NSC241240) and oxaliplatin (NSC266046), were obtained from the National Cancer Institute (NCI) Developmental Therapeutics Program Chemical Repository (21). The FDA-approved anticancer drug set is available from the Developmental Therapeutics Program at https://dtp.cancer.gov/organization/dscb/obtaining/. […] The stock solutions were prepared in dimethyl sulfoxide (DMSO, Sigma-Aldrich, St. Louis, MO, cat. D2650), except for the platinum compounds which were prepared in saline (Quality Biological, Gaithersburg, MD, cat. 114-055-101), at 800-fold the tested concentration and stored at -70 degrees C prior to their use. All drugs and investigational agents were tested over a range starting from a high concentration at or near the clinical Cmax and decreasing in half-log increments. If the clinical Cmax for an agent had not been determined, the highest concentration tested was 10 microM, except for SN-38, which was tested at a high concentration of 1 microM.
# Cell Culture. All cells were maintained in an incubator at 37 degrees C and 5% CO2 with 95% humidity. The PDC lines were cultured according to standard operating procedures established by the NCI PDMR (https://pdmr.cancer.gov). Table 3 of the manuscript, lists the cell lines along with the number of the three cell types plated to form the mct-spheroids and media for tumor cell growth. After thawing, all PDC lines, except 997537-175-T-J1-PDC and 415267-285-R-J2-PDC, were cultured in Matrigel-coated flasks prepared with a working solution of 1X Ham's F-12 nutrient mix, without supplementation (Thermo Fisher Scientific, cat. 11765054), 100 U/mL penicillin-streptomycin (Thermo Fisher Scientific, cat. 15140122), and 2.5% Matrigel (Corning Inc., Corning, NY, cat. 354248) for the first three passages. The two PDC lines 997537-175-T-J1-PDC and 415267-285-R-J2-PDC were cultured on uncoated flasks. The 857933-349-R-J2-PDC line was cultured in 6C/Colon 1B media containing advanced DMEM/F-12 (Thermo Fisher Scientific, cat. 12634028), 10 mM HEPES (Thermo Fisher Scientific, cat. 15630080), 1X GlutaMAX supplement (Thermo Fisher Scientific, cat. 35050061), 0.1 mg/mL primocin (InvivoGen, San Diego, CA, cat. ant-pm-2), 10% defined fetal bovine serum, heat inactivated (HyClone Laboratories Inc., Logan, UT, cat. SH30070.03HI), 50% L-WRN conditioned media (ATCC, cat. CRL-3276), 1.25 mM N-Acetyl-L-cysteine (Sigma-Aldrich, cat. A9165), 10 mM nicotinamide (Sigma-Aldrich, cat. N0636), 1X B-27 supplement (Thermo Fisher Scientific, cat. 17504044), 1X N-2 supplement (Thermo Fisher Scientific, cat. […]
# 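Further: spheroids exposed to compounds for 7 days before viability readout.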
# 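Wherever viability, T/C is given: luminescence signal used as surrogate for viable cell content; 100% = DMSO vehicle control viability.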
structure (smiles),measurement,setting,value
CC(C)n1c(=O)n(C)c2cnc3cc(F)c(-c4ccc(OCCCN5CCCCC5)nc4)cc3c21 + Cc1cccc(N(C)C(=O)C2C(O)CCN2c2nc(C)cc(C(F)(F)F)c2C#N)c1,IC50,"curve of first compound, second compound 0.0316 µM",> 10 µM
same,IC50,"curve of first compound, second compound 0.1 µM",> 10 µM
same,IC50,"curve of first compound, second compound 0.316 µM",> 10 µM
same,IC50,"curve of first compound, second compound 1 µM",> 10 µM
same,IC50,"curve of first compound, second compound 3.16 µM",> 10 µM
same,IC50,"curve of first compound, second compound 10 µM",> 10 µM
same,"viability, T/C","second compound 0.0316 µM, first compound 0.0316 µM",84.6%
same,"viability, T/C","second compound 0.0316 µM, first compound 0.1 µM",102%
same,"viability, T/C","second compound 0.0316 µM, first compound 0.316 µM",96.9%
same,"viability, T/C","second compound 0.0316 µM, first compound 1 µM",100%
same,"viability, T/C","second compound 0.0316 µM, first compound 3.16 µM",89.2%
same,"viability, T/C","second compound 0.0316 µM, first compound 10 µM",78.1%
same,"viability, T/C","second compound 0.1 µM, first compound 0.0316 µM",94.7%
same,"viability, T/C","second compound 0.1 µM, first compound 0.1 µM",103%
same,"viability, T/C","second compound 0.1 µM, first compound 0.316 µM",100%
same,"viability, T/C","second compound 0.1 µM, first compound 1 µM",90.4%
same,"viability, T/C","second compound 0.1 µM, first compound 3.16 µM",85.9%
same,"viability, T/C","second compound 0.1 µM, first compound 10 µM",76.4%
same,"viability, T/C","second compound 0.316 µM, first compound 0.0316 µM",105%
same,"viability, T/C","second compound 0.316 µM, first compound 0.1 µM",99%
same,"viability, T/C","second compound 0.316 µM, first compound 0.316 µM",79.7%
same,"viability, T/C","second compound 0.316 µM, first compound 1 µM",99.8%
same,"viability, T/C","second compound 0.316 µM, first compound 3.16 µM",98.8%
same,"viability, T/C","second compound 0.316 µM, first compound 10 µM",73.3%
same,"viability, T/C","second compound 1 µM, first compound 0.0316 µM",106%
same,"viability, T/C","second compound 1 µM, first compound 0.1 µM",106%
same,"viability, T/C","second compound 1 µM, first compound 0.316 µM",102%
same,"viability, T/C","second compound 1 µM, first compound 1 µM",91.8%
same,"viability, T/C","second compound 1 µM, first compound 3.16 µM",89.2%
same,"viability, T/C","second compound 1 µM, first compound 10 µM",72.4%
same,"viability, T/C","second compound 3.16 µM, first compound 0.0316 µM",91%
same,"viability, T/C","second compound 3.16 µM, first compound 0.1 µM",91.8%
same,"viability, T/C","second compound 3.16 µM, first compound 0.316 µM",114%
same,"viability, T/C","second compound 3.16 µM, first compound 1 µM",101%
same,"viability, T/C","second compound 3.16 µM, first compound 3.16 µM",107%
same,"viability, T/C","second compound 3.16 µM, first compound 10 µM",69.4%
same,"viability, T/C","second compound 10 µM, first compound 0.0316 µM",88.8%
same,"viability, T/C","second compound 10 µM, first compound 0.1 µM",98.6%
same,"viability, T/C","second compound 10 µM, first compound 0.316 µM",104%
same,"viability, T/C","second compound 10 µM, first compound 1 µM",90.2%
same,"viability, T/C","second compound 10 µM, first compound 3.16 µM",87.8%
same,"viability, T/C","second compound 10 µM, first compound 10 µM",66.4%
C#Cc1c(F)ccc2cc(O)cc(-c3ncc4c(N5CC6CCC(C5)N6)nc(OCC56CCCN5CC(F)C6)nc4c3F)c12 (stereo unspecified),"viability, T/C",compound 0.0316 µM,99.2% and 106% and 107%
same,"viability, T/C",compound 0.1 µM,104% and 107% and 91.8%
same,"viability, T/C",compound 0.316 µM,90.8% and 96.4% and 88.5%
same,"viability, T/C",compound 1 µM,89% and 91.7% and 89.9%
same,"viability, T/C",compound 3.16 µM,91.4% and 107% and 86%
same,"viability, T/C",compound 10 µM,85% and 95.8% and 82.9%
same,IC50,curve of compound,> 10 µM
O=c1[nH]cc(F)c(=O)[nH]1,"viability, T/C",compound 0.0316 µM,90.7% and 101% and 99.7%
same,"viability, T/C",compound 0.1 µM,98.1% and 101% and 92.8%
same,"viability, T/C",compound 0.316 µM,93.2% and 92.1% and 94.4%
same,"viability, T/C",compound 1 µM,99.2% and 101% and 92%
same,"viability, T/C",compound 3.16 µM,107% and 102% and 96.4%
same,"viability, T/C",compound 10 µM,99.7% and 106% and 94.3%
same,IC50,curve of compound,> 10 µM
